Results taken from EPA's ToxValDB 9.5 (doi:10.2903/j.efsa.2005.15r).
Values after ≈ are worked out from the molar mass of the structure shown.

Columns and labels:
Aphidius rhopalosiphi = details: not reported; mortality
Apis mellifera = details: acute, duration: 48 hours, mortality
Bird = details: acute; oral; unspecified; mortality
Oryctolagus sp. = details: reproduction developmental; mortality
Typhlodromus pyri = details: not reported; mortality
[1] = chronic/long-term, duration: 21 days

Compound `COC(=O)c1ccccc1S(=O)(=O)NC(=O)N(C)c1nc(C)nc(OC)n1` [Tribenuron-methyl] has an NOAEL (Anas platyrhynchos; reproductive) of 21 mg/kg-day, an LC50 (Anas platyrhynchos; short-term, oral, feed, mortality) greater than 974 mg/kg-day and an LEL (Aphidius rhopalosiphi) of 30 g/ha. For the same compound, the LD50 (Apis mellifera; dermal) was greater than 98.4 µg/piece, the LD50 (Apis mellifera; oral, unspecified) was greater than 9.1 µg/piece and the LD50 (Bird) was greater than 2250 mg/kg. It also gave an LC50 (Daphnia magna; acute, duration: 48 hours, mortality) greater than 894 µg/mL, an NOEC (Daphnia magna; [1]) of 120 mg/L and an LC50 (Oncorhynchus mykiss; acute, duration: 96 hours, mortality) of 738 µg/mL (≈ 1870 µM). For the same compound, the NOEC (Oncorhynchus mykiss; [1]) was 560 mg/L, the NOAEL (Oryctolagus sp.) was 20 mg/kg-day and the LD50 (Rattus norvegicus; acute, oral, mortality) was greater than 5000 mg/kg. For the same compound, the NOAEL (Rattus norvegicus; chronic, duration: 2 years, body weight) was 1 mg/kg-day, the NOAEL (Rattus norvegicus; reproduction developmental, reproduction) was 19 mg/kg-day and the NOAEL (Rattus norvegicus; subchronic, duration: 90 days, oral, body weight) was 7 mg/kg-day. The LEL (Typhlodromus pyri) was 30 g/ha.
